Test results from US20260286396A1, “AXL KNOCK OUT CAR T CELLS AND METHODS FOR USE THEREOF” (priority 2023, published 2026).

Test system: CART19 cells
Experiment: RNA sequencing of CART19 cells with Ingenuity pathway analysis (pathways, upstream regulators)
Assay type: cell-based, human
Conditions: for Expr Log Ratio / Activation Z-Score / Predicted Activation State: 30 nM, 24 hours vs vehicle
Protocol: CART19 cells were isolated using CD4 and CD8 microbeads to […] the JeKo-1 target cells; this isolation step was performed twice to eliminate the possible contamination of JeKo-1 cells. RNA was isolated from the CART19 cells using QIAGEN RNEASY® Plus Mini Kit. RNA was further treated with DNase I (QIAGEN) and purified using RNA Clean & Concentrator (Zymo Research). […] The fastq files were viewed in FastQC to check for quality (Cox et al., Mol Ther., 29 (4): 1529-1540, 2020). After verifying the lack of adapter sequences with FastQC, Cutadapt (Martin, EMBnet, 17:10-12, 2011) was used to filter for reads greater than 32 base pairs. Output files were re-checked for quality using FastQC. The latest human reference genome (GRCh38.p13) was downloaded from NCBI. Genome index files were generated using STAR (Cox et al. 2020, supra, and Dobin et al., Bioinformatics, 29:15-21, 2012). Paired end reads from fastq files were mapped to the genome for each condition. HTSeq was used to generate expression counts for each gene (Cox et al. 2020, supra; and Putri et al., Bioinformatics, 38:2943-2945, 2022). […] The disruption efficiency of the CRISPR/Cas9 GM-CSF knockout was determined using targeted sequencing through PCR and TIDE analysis (software available at tide.nki.nl) as described elsewhere (Sakemura et al. 2021, supra).
RNA sequencing of CART19 cells was then performed. […] Data were analyzed with the use of QIAGEN Ingenuity Pathway Analysis (IPA) (digitalinsights.qiagen.com/IPA; Krämer et al., Bioinformatics 30 (4): 523-530, 2014).

[1] = CART19+JeKo-1, 30 nM TP-0903 vs vehicle, 24 h
[2] = CART19+JeKo-1, 30 nM TP-0903 vs vehicle, 24 h, flag bias
[3] = Upstream Regulator BRD4 (second entry, r376)

CN1CCN(Cc2ccc(Nc3ncc(Cl)c(Nc4ccccc4S(=O)(=O)N(C)C)n3)cc2)CC1 [TP-0903, Dubermatinib]
upstream regulator SREBF1 Predicted Activation State [1]: inhibited | upstream regulator SREBF2 Activation Z-Score [1]: −1.433 | upstream regulator SUCNR1 Activation Z-Score [1]: 0 | upstream regulator TEAD3 Activation Z-Score [1]: −1.633 | upstream regulator TERT Activation Z-Score [1]: −1.412 | upstream regulator TGFB1 Activation Z-Score [1]: −1.429 | upstream regulator TGFB3 Activation Z-Score [1]: −0.894 | upstream regulator TGFBR2 Activation Z-Score [1]: 0.658 | upstream regulator TLR2 Activation Z-Score [1]: −1.417 | upstream regulator TLR7 Predicted Activation State [1]: inhibited | upstream regulator TNFRSF4 Activation Z-Score [1]: −1.098 | upstream regulator TNFSF15 Activation Z-Score [1]: −0.425 | upstream regulator TRAF3 Activation Z-Score [1]: −0.656 | upstream regulator TREM1 Activation Z-Score [1]: −0.093 | upstream regulator VEGF Activation Z-Score [1]: −0.81 | upstream regulator WNT1 Activation Z-Score [1]: −1.387 | upstream regulator YAP1 Activation Z-Score [1]: 0.591 | upstream regulator COMMD1 Activation Z-Score [2]: 2 | upstream regulator CSF Activation Z-Score [2]: −0.816 | upstream regulator EGLN Activation Z-Score [2]: 1.793 | upstream regulator IKZF2 Activation Z-Score [2]: 0.447 | upstream regulator MIR-17-5P (AND OTHER MIRNAS W/SEED AAAGUGC) Activation Z-Score [2]: 1.449 | upstream regulator MIR-450A-5P (AND OTHER MIRNAS W/SEED UUUGCGA) Activation Z-Score [2]: 2.236 | upstream regulator MLXIPL Activation Z-Score [2]: −3.101 | upstream regulator PAF1 Activation Z-Score [2]: 0.762 | upstream regulator TLR7 Activation Z-Score [2]: −2 | upstream regulator TPH1 Activation Z-Score [2]: −1.89 | Expr Log Ratio (Upstream Regulator ADAM8): −0.008 | Activation Z-Score (Upstream Regulator ADRB): 1.616 | Activation Z-Score (Upstream Regulator AHR): −0.104 | Expr Log Ratio (Upstream Regulator AHR): −0.083 | Activation Z-Score (Upstream Regulator AKT): −2.79 | Predicted Activation State (Upstream Regulator AKT): inhibited | Activation Z-Score (Upstream Regulator AREG): −2.287 | Expr Log Ratio (Upstream Regulator AREG): 1.429 | Predicted Activation State (Upstream Regulator AREG): inhibited | Activation Z-Score (Upstream Regulator BHLHE40): −0.158 | Expr Log Ratio (Upstream Regulator BHLHE40): 0.043 | Expr Log Ratio (Upstream Regulator BIRC5): −0.028 | Activation Z-Score (Upstream Regulator BNIP3L): −1.463 | Expr Log Ratio (Upstream Regulator BNIP3L): −0.47 | Activation Z-Score (Upstream Regulator BRD4 (first entry, r300, no Expr Log Ratio)): −0.213 | Activation Z-Score [3]: −2.16 | Expr Log Ratio [3]: −0.067 | Predicted Activation State [3]: inhibited | Activation Z-Score (Upstream Regulator CASP8): 1.72 | Expr Log Ratio (Upstream Regulator CASP8): 0.141 | Activation Z-Score (Upstream Regulator CD3): −1.272 | Activation Z-Score (Upstream Regulator CD40): −0.284 | Expr Log Ratio (Upstream Regulator CD40): −0.283 | Activation Z-Score (Upstream Regulator CDKN2A): 0.421 | Expr Log Ratio (Upstream Regulator CDKN2A): −0.27 | Activation Z-Score (Upstream Regulator CREB1): −0.611 | Expr Log Ratio (Upstream Regulator CREB1): −0.112 | Activation Z-Score (Upstream Regulator CREM): 0.286 | Expr Log Ratio (Upstream Regulator CREM): 0.351 | Activation Z-Score (Upstream Regulator CSF1): −1.71 | Expr Log Ratio (Upstream Regulator CSF1): −0.377 | Activation Z-Score (Upstream Regulator CSF2): −2.255 | Expr Log Ratio (Upstream Regulator CSF2): −0.066 | Predicted Activation State (Upstream Regulator CSF2): inhibited | Activation Z-Score (Upstream Regulator CTNNB1): −2.082 | Expr Log Ratio (Upstream Regulator CTNNB1): −0.154 | Predicted Activation State (Upstream Regulator CTNNB1): inhibited | Activation Z-Score (Upstream Regulator DDIT4): −0.816 | Expr Log Ratio (Upstream Regulator DDIT4): −0.248 | Activation Z-Score (Upstream Regulator EGF): −1.744 | Expr Log Ratio (Upstream Regulator EIF2S1): 0.079 | Activation Z-Score (Upstream Regulator ELAVL1): −1.431 | Expr Log Ratio (Upstream Regulator ELAVL1): 0.045 | Activation Z-Score (Upstream Regulator EPAS1): −0.365 | Expr Log Ratio (Upstream Regulator EPAS1): −0.784 | Activation Z-Score (Upstream Regulator ETS1): −1.485 | Expr Log Ratio (Upstream Regulator ETS1): 0.129 | Activation Z-Score (Upstream Regulator FOXP3): 1.094 | Expr Log Ratio (Upstream Regulator FOXP3): −0.21 | Expr Log Ratio (Upstream Regulator GNAQ): −0.381 | Activation Z-Score (Upstream Regulator GNAS): 0.898 | Expr Log Ratio (Upstream Regulator GNAS): 0.075 | Activation Z-Score (Upstream Regulator HDL-CHOLESTEROL): 1.89 | Activation Z-Score (Upstream Regulator HIF1A): −1.763 | Expr Log Ratio (Upstream Regulator HIF1A): 0.181 | Activation Z-Score (Upstream Regulator HRAS): −1.187 | Activation Z-Score (Upstream Regulator ID2): 1.609 | Expr Log Ratio (Upstream Regulator ID2): 0.114 | Activation Z-Score (Upstream Regulator IFN BETA): −0.892 | Activation Z-Score (Upstream Regulator IFNG): −2.044 | Expr Log Ratio (Upstream Regulator IFNG): −0.559 | Predicted Activation State (Upstream Regulator IFNG): inhibited | Activation Z-Score (Upstream Regulator IGG): 1.765 | Activation Z-Score (Upstream Regulator IL1B): −1.164 | Expr Log Ratio (Upstream Regulator IL1B): 0.19 | Activation Z-Score (Upstream Regulator IL2): −1.669 | Expr Log Ratio (Upstream Regulator IL2): −0.397 | Activation Z-Score (Upstream Regulator IL3): −1.125 | Expr Log Ratio (Upstream Regulator IL3): −0.843 | Activation Z-Score (Upstream Regulator IL4): −3.271 | Expr Log Ratio (Upstream Regulator IL4): −1.068 | Predicted Activation State (Upstream Regulator IL4): inhibited | Activation Z-Score (Upstream Regulator IL5): −1.165 | Expr Log Ratio (Upstream Regulator IL5): −1.157 | Activation Z-Score (Upstream Regulator IL6): −2.441 | Expr Log Ratio (Upstream Regulator IL6): −1.319 | Predicted Activation State (Upstream Regulator IL6): inhibited | Activation Z-Score (Upstream Regulator IL13): −1.489 | Expr Log Ratio (Upstream Regulator IL13): 0 | Activation Z-Score (Upstream Regulator IL17A): 0.354 | Expr Log Ratio (Upstream Regulator IL17A): −0.356 | Activation Z-Score (Upstream Regulator IL33): −1.508 | Activation Z-Score (Upstream Regulator IMMUNOGLOBULIN): 0.465 | Expr Log Ratio (Upstream Regulator ITGA11): −0.167 | Activation Z-Score (Upstream Regulator ITGA11, flag bias): −1 | Activation Z-Score (Upstream Regulator KLF11): −2.333
